The results in this text go back to patent US7671077B2, “Neuroprotective small organic molecules, compositions and uses related thereto” (priority 2004, dated 2010).

The structures appear in SMILES notation.

The series concerns midbrain dopaminergic neurons. The experiment in a line: Dopamine (DA) uptake assay in primary midbrain cultures. The class given is cell-based, rat. The conditions noted are these: for activity at 5 µM: compound concentration 5 μM; for activity at 10 µM: compound concentration 10 μM; for activity at 2.5 µM: compound concentration 2.5 μM; for activity at 1.25 µM: compound concentration 1.25 μM; for cytotoxicity in midbrain culture: 20 μM; for activity at 0.6 µM: compound concentration 0.6 μM; for EC50: FIG. 36, read-out: half-maximal effective concentration (EC50) for DA uptake stimulation. On the procedure: Primary midbrain cultures were prepared from rat embryo ventral mesencephalon as described previously by Lin et al (1994). In brief, rostral mesencephalic tegmentum of embryonic day 16 rat embryos was collected in DMEM/F12 (Hyclone SH30023.01) containing 2 mM glutamine on ice, The tissue was treated with 0.1% trypsin in Hanks' balanced salt solution (HBSS, Gibco 14175-095) for 15 min at 37° C. and dissociated mechanically by mild trituration with a fire-polished glass pipet in growth medium plus 2% heat-inactivated fetal bovine serum (FBS). The growth medium consisted of equal volumes of Dulbecco's minimal essential medium DMEM (Gibco 12100-046) and HAM's F12 nutrient mixture (Gibco 21700-075) supplemented with 33 mM glucose, 13 mM sodium bicarbonate, 5 mM HEPES, 2 mM glutamine, 25 μg/ml insulin, 100 μg/ml transferrin, 60 μM putrescine, 20 nM progesterone, 30 nM sodium selenite, 5 U/ml penicillin G and 5 μg/ml streptomycin. 24-well tissue culture plate was coated by adding 15 μg/ml poly-1-ornithine hydrobromide solution at 0.5 ml/well, incubated at room temperature for 1 hr. The coating solution was removed and the well washed 3 times with distilled water and one wash with HBSS. The dissociated cells were plated onto polyornithine-coated wells at 250,000-350,000 trypan blue-excluding viable cells per well in 500 μl of above medium containing 1% FBS. After 3 h when most of the cells had adhered to the bottom of the well, the medium was replaced with 500 μl of fresh medium without FBS. A serial dilution of the sample to be assayed for trophic activity was added to each well in duplicate at the time of medium change or within 24 h thereafter. Unless otherwise stated, cultures were incubated at 37° C. without any further medium change up to 7 days. Primary hindbrain cultures were prepared as described for the midbrain cultures except that the rostral raphe region (instead of the rostral mesencephalon) was dissected and trypsinized for 20 (instead of 15) min.
[^3H]DA uptake was measured in cultures at day 7, and all the solutions were maintained at 37° C. The growth medium was removed, and the cultures were rinsed twice with 0.25 ml of uptake buffer, which consists of HBSS (Gibco 11201-092) supplemented with 28 mM glucose, 15 mM HEPES, 1 mM ascorbic acid (an antioxidant), and […] pargyline (a monoamine oxidase inhibitor). The cultures were then incubated with 0.25 ml of fresh uptake buffer containing 50 nM [^3H]DA (NEN/DuPont) for 20 min at 37° C. [^3H]DA uptake was stopped by removing the incubation mixture, and cells were then washed twice with 0.5 ml of the uptake buffer at room temperature. To release [^3H]DA from the cells, the cultures were lysed with 0.2 ml of 0.1 N NaOH for 1 h at room temperature, the lysate was then added to 1 ml of Microscint-20 (Packard 6013621), and counted for radioactivity in a microplate scintillation counter (Packard TopCount, NXT). Background values were obtained by adding to the uptake buffer 0.5 mM GBR-12909, a specific inhibitor of the high-affinity uptake pump of the dopaminergic neurons, and were usually <5% of the ^3H uptake in untreated control cultures. Forskolin (Fk, 25 μM) was employed as a positive control.

The mark [1] stands for this setting: Rattus norvegicus, Neuron, midbrain culture, read-out: DA uptake % of control.
[2] abbreviates: Rattus norvegicus, Neuron, midbrain culture.

Regarding `O=C(/C=C/c1ccc(Cl)cc1Cl)Nc1ccc(S(=O)(=O)Nc2nccs2)cc1` [V″], the activity at 0.3 µM (Rattus norvegicus, Neuron, compound concentration 0.3 μM, midbrain culture, read-out: DA uptake % of control) is 250%.
Take `CCc1nnc(NS(=O)(=O)c2ccc(NC(=O)/C=C/c3ccc(F)cc3)cc2)s1` [W]: under setting [1], the activity at 5 µM worked out at 180%.
For the compound `CCCCCCCC(=O)Nc1ccc(S(=O)(=O)Nc2nccs2)cc1` [W′], the activity at 10 µM under setting [1] is 200%.
Take `COc1ccccc1/C=C/C(=O)Nc1ccc(S(=O)(=O)NC(=N)/C=C(\C)O)cc1` [W′′′]: the activity at 2.5 µM under setting [1] is 140%.
Regarding `O=C(/C=C/c1ccc(F)cc1Cl)Nc1ccc(S(=O)(=O)Nc2nccs2)cc1` [W′′′′], the activity at 1.25 µM under setting [1] is 190%.
Same read-out and setting: then `O=C(/C=C/c1cc2c(cc1Br)OCO2)Nc1ccc(S(=O)(=O)Nc2nccs2)cc1` [W″], with 330%.
Consider `CCc1nnc(NS(=O)(=O)c2ccc(NC(=O)c3ccc(Cl)cc3)cc2)s1` [X], for which, where the note is “Rattus norvegicus, Neuron, compound concentration 20 μM, midbrain culture, read-out: DA uptake % of control”, the activity at 20 µM was found to be 140%.
For `O=C(/C=C/c1ccc(Br)cc1)Nc1ccc(S(=O)(=O)Nc2nc[nH]n2)cc1` [X′], the “cytotoxicity in midbrain culture” value is “no cytotoxicity”. The activity at 0.6 µM under setting [1] was determined as 290%. Also, the EC50 under setting [2] is about 200 nM.
`C/C(O)=C\C(=N)NS(=O)(=O)c1ccc(NC(=O)/C=C/c2ccccc2)cc1` [X′′′]: the activity at 5 µM under setting [1] stood at 140%.
As for `Cc1ccccc1/C=C/C(=O)Nc1ccc(S(=O)(=O)Nc2nc[nH]n2)cc1` [X′′′′], the activity at 1.25 µM under setting [1] worked out at 260%.
Consider `O=C(/C=C/c1cc(C(F)(F)F)ccc1C(F)(F)F)Nc1ccc(S(=O)(=O)Nc2nccs2)cc1` [X″], for which, under setting [1], the activity at 1.25 µM amounted to 245%.
As for `COc1ccc(/C=C/C(=O)Nc2ccc(S(=O)(=O)Nc3cc(C)nc(C)n3)cc2)cc1OC` [Y], the activity at 40 µM (Rattus norvegicus, Neuron, compound concentration 40 μM, midbrain culture, read-out: DA uptake % of control) worked out at 160%.
`O=C(Nc1ccc(S(=O)(=O)Nc2nc[nH]n2)cc1)c1ccc2ccccc2c1` [Y′]: the “cytotoxicity in midbrain culture” value is reported as “no cytotoxicity”. For the same compound, under setting [1], the activity at 1.25 µM was determined as 290%. Also, under setting [2], the EC50 is about 200 nM.
As to `Cc1nc(NS(=O)(=O)c2ccc(NC(=O)/C=C/c3ccccc3Cl)cc2)sc1C(=O)O` [Y′′′], the activity at 10 µM under setting [1] amounted to 160%.
For `O=C(/C=C/c1cccc(Cl)c1Cl)Nc1ccc(S(=O)(=O)Nc2nccs2)cc1` [Y′′′′], the activity at 0.6 µM under setting [1] is 180%.
Take `COc1ccccc1/C=C/C(=O)Nc1ccc(S(=O)(=O)Nc2nc[nH]n2)cc1` [Y″]: under setting [1], the activity at 2.5 µM is 180%.
On to `O=C(/C=C/c1ccccc1F)Nc1ccc(S(=O)(=O)Nc2ccccn2)cc1` [Z′′′], for which the activity at 2.5 µM under setting [1] was found to be 140%.
Consider `COc1ccc(/C=C/C(=O)Nc2ccc(S(=O)(=O)Nc3nccs3)cc2)c(OC)c1` [Z′′′′], for which the activity at 1.25 µM under setting [1] amounted to 170%.
`O=C(/C=C/c1ccccc1I)Nc1ccc(S(=O)(=O)Nc2nccs2)cc1` [Z″]: under setting [1], the activity at 1.25 µM was 300%.
